The results in this text go back to ChEMBL document CHEMBL3758105 (J Med Chem, 2016).

In data set [1] the test system is Cynomolgus monkey. Nature of the data set: Drug level in cynomolgus monkey treated with N-(4-Fluoro-3-methoxybenzyl)-6-(2-(((2S,5R)-5-(hydroxymethyl)-1,4-dioxan-2-yl)methyl)-2H-tetrazol-5-yl)-2-methylpyrimidine-4-carboxamide at 1 mg/kg, po. Format: ADME, organism-based, Macaca fascicularis. Particulars: in vivo.
For data set [2], the system named is Rattus norvegicus. Kind of data set: Drug level in Sprague-Dawley rat treated with N-(4-Fluoro-3-methoxybenzyl)-6-(2-(((2S,5R)-5-(hydroxymethyl)-1,4-dioxan-2-yl)methyl)-2H-tetrazol-5-yl)-2-methylpyrimidine-4-carboxamide at 1 mg/kg, po. Particulars: in vivo. Format: ADME, organism-based.
For data set [3], the system named is Hepatocyte. Nature of the data set: Drug level in human hepatocytes treated with N-(4-Fluoro-3-methoxybenzyl)-6-(2-(((2S,5R)-5-(hydroxymethyl)-1,4-dioxan-2-yl)methyl)-2H-tetrazol-5-yl)-2-methylpyrimidine-4-carboxamide. Format: ADME, cell-based.
Another data set concerns the target Collagenase 3 (Homo sapiens, UniProt P45452). Nature of the data set: Inhibition of full length human recombinant MMP13 using MCA-Arg-Pro-Leu-Gly-Leu-Dpa-Ala-Arg-Glu-Arg-NH2 as substrate preincubated for 60 mins followed by substrate addition by fluorescence assay.
A short description of data set [4]: Drug level in cynomolgus monkey hepatocytes treated with N-(4-Fluoro-3-methoxybenzyl)-6-(2-(((2S,5R)-5-(hydroxymethyl)-1,4-dioxan-2-yl)methyl)-2H-tetrazol-5-yl)-2-methylpyrimidine-4-carboxamide. Format: ADME, cell-based, Macaca fascicularis, Hepatocyte.
The nature of data set [5]: Drug level in cynomolgus monkey urine treated with N-(4-Fluoro-3-methoxybenzyl)-6-(2-(((2S,5R)-5-(hydroxymethyl)-1,4-dioxan-2-yl)methyl)-2H-tetrazol-5-yl)-2-methylpyrimidine-4-carboxamide. Format: ADME, tissue-based, Macaca fascicularis. The note with it: in vivo.
The test system of data set [6] is Cynomolgus monkey. Nature of the data set: Drug metabolism in cynomolgus monkey assessed as (2S,5S)-5-((5-(6-((4-Fluoro-3-methoxybenzyl)carbamoyl)-2-methylpyrimidin-4-yl)-2H-tetrazol-2-yl)methyl)-1,4-dioxane-2-carboxylic acid formation at 1 mg/kg, po. Format: ADME, organism-based, Macaca fascicularis. The note with it: in vivo.
A short description of data set [7]: Drug metabolism in cynomolgus monkey urine assessed as (2S,5S)-5-((5-(6-((4-Fluoro-3-methoxybenzyl)carbamoyl)-2-methylpyrimidin-4-yl)-2H-tetrazol-2-yl)methyl)-1,4-dioxane-2-carboxylic acid formation. Format: ADME, tissue-based, Macaca fascicularis.
Data set [8] can be described thus: Clearance in beagle dog at 1 mg/kg, po and iv. Format: ADME, organism-based, Canis lupus familiaris. The note with it: in vivo.
A short description of data set [9]: Clearance in cynomolgus monkey at 1 mg/kg, po and iv. Format: ADME, organism-based, Macaca fascicularis. The note with it: in vivo.
The subject of data set [10] is Hepatocyte. Kind of data set: Drug metabolism in human hepatocytes assessed as glucuronidation. Format: ADME, cell-based.
Data set [11] can be described thus: Oral bioavailability in cynomolgus monkey at 1 mg/kg. Format: ADME, organism-based, Macaca fascicularis. The note with it: in vivo.
The nature of data set [12]: Drug metabolism in cynomolgus monkey hepatocytes assessed as glucuronidation. Format: ADME, cell-based, Macaca fascicularis, Hepatocyte.
Another data set deals with Cytochrome P450 2D6 (Homo sapiens, UniProt P10635). Kind of data set: Inhibition of CYP2D6 (unknown origin). Format: ADME.
Cytochrome P450 2D6, sequence (P10635 whole entry): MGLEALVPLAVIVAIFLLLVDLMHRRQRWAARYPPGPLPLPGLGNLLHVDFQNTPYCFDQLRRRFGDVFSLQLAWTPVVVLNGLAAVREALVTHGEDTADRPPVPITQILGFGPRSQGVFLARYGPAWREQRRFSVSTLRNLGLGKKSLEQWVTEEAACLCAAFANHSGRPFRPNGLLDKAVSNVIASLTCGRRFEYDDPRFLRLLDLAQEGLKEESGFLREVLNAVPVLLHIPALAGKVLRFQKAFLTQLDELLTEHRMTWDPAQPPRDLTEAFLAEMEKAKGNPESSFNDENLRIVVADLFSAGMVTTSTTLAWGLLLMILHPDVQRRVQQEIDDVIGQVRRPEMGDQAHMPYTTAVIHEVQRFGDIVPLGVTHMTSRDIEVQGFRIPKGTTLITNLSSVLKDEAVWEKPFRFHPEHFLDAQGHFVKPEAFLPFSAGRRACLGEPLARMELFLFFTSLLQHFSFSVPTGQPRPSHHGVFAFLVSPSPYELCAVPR
Data set [13] is described as follows: Oral bioavailability in Sprague-Dawley rat at 1 mg/kg. Format: ADME, organism-based. The note with it: in vivo.
Data set [14] relates to Hepatocyte. Kind of data set: Drug metabolism in human hepatocytes assessed as (2S,5S)-5-((5-(6-((4-Fluoro-3-methoxybenzyl)carbamoyl)-2-methylpyrimidin-4-yl)-2H-tetrazol-2-yl)methyl)-1,4-dioxane-2-carboxylic acid formation. Format: ADME, cell-based.
Data set [15] has as its system Hepatocyte. Nature of the data set: Drug metabolism in human hepatocytes assessed as methyl oxidation. Format: ADME, cell-based.
Data set [16] is described as follows: Drug metabolism in cynomolgus monkey hepatocytes assessed as (2S,5S)-5-((5-(6-((4-Fluoro-3-methoxybenzyl)carbamoyl)-2-methylpyrimidin-4-yl)-2H-tetrazol-2-yl)methyl)-1,4-dioxane-2-carboxylic acid formation. Format: ADME, cell-based, Macaca fascicularis, Hepatocyte.
For the next data set, the target named is T1, Cytochrome P450 1A2 (Homo sapiens, UniProt P05177).
T1 sequence (P05177 whole entry): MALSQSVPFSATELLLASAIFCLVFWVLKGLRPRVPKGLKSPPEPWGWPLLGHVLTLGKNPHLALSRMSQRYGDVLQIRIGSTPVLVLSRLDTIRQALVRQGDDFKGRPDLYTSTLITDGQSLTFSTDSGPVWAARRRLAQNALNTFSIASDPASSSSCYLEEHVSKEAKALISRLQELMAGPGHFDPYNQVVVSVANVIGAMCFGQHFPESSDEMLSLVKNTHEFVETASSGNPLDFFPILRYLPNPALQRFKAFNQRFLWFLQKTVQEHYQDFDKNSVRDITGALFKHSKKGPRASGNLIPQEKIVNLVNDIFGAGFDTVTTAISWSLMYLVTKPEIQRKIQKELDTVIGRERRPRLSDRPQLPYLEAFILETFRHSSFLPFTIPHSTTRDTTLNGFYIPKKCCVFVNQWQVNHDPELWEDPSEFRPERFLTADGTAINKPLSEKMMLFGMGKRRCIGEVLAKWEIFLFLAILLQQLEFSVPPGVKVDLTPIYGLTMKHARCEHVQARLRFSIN
Nature of the data set: Inhibition of CYP1A2 (unknown origin). Format: ADME.

Data set [17] relates to Rattus norvegicus. Kind of data set: Drug metabolism in Sprague-Dawley rat assessed as (2S,5S)-5-((5-(6-((4-Fluoro-3-methoxybenzyl)carbamoyl)-2-methylpyrimidin-4-yl)-2H-tetrazol-2-yl)methyl)-1,4-dioxane-2-carboxylic acid formation at 1 mg/kg, po. Format: ADME, organism-based. The note with it: in vivo.
The nature of data set [18]: Drug metabolism in cynomolgus monkey urine assessed as sulfate conjugation. Format: ADME, Macaca fascicularis.
Data set [19] is described as follows: Drug metabolism in cynomolgus monkey urine assessed as glucuronidation. Format: ADME, tissue-based, Macaca fascicularis.
The nature of data set [20]: Drug metabolism in cynomolgus monkey hepatocytes assessed as sulfate conjugation. Format: ADME, cell-based, Macaca fascicularis, Hepatocyte.
A short description of data set [21]: Oral bioavailability in beagle dog at 1 mg/kg. Format: ADME, organism-based, Canis lupus familiaris. The note with it: in vivo.
A short description of data set [22]: Drug metabolism in cynomolgus monkey urine assessed as demethylation. Format: ADME, tissue-based, Macaca fascicularis.
The target of the next data set is Cytochrome P450 3A4 (Homo sapiens, UniProt P08684). Nature of the data set: Inhibition of CYP3A4 (unknown origin). Format: ADME.
Cytochrome P450 3A4, sequence (P08684 whole entry): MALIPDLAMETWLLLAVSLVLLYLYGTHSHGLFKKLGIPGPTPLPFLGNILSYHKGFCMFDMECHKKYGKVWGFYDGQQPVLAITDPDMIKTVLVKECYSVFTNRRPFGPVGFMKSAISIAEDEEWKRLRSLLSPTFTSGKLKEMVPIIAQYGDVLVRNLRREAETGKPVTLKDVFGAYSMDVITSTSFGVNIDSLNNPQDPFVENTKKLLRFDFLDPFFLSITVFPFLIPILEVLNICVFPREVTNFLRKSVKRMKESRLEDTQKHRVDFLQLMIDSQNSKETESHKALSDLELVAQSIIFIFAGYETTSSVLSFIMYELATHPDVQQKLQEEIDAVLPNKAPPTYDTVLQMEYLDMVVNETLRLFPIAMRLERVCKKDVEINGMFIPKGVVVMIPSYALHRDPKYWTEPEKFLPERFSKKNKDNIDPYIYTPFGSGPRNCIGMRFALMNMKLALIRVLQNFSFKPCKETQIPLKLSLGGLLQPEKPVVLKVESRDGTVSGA
A short description of data set [23]: Drug metabolism in cynomolgus monkey urine assessed as methyl oxidation. Format: ADME, tissue-based, Macaca fascicularis.
Data set [24] concerns Hepatocyte. Nature of the data set: Drug metabolism in human hepatocytes assessed as demethylation. Format: ADME, cell-based.
Data set [25] is described as follows: Drug metabolism in cynomolgus monkey hepatocytes assessed as demethylation. Format: ADME, cell-based, Macaca fascicularis, Hepatocyte.
A further data set has as its target Cytochrome P450 2C9 (Homo sapiens, UniProt P11712). Nature of the data set: Inhibition of CYP2C9 in human liver microsomes assessed as reduction of diclofenac metabolism after 8 mins. Format: ADME.
Data set [26] deals with Hepatocyte. Nature of the data set: Drug metabolism in human hepatocytes assessed as sulfate conjugation. Format: ADME, cell-based.
The next data set deals with Stromelysin-1 (Homo sapiens, UniProt P08254). Nature of the data set: Inhibition of MMP3 (unknown origin) catalytic domain using MCA-Arg-Pro-Leu-Gly-Leu-Dpa-Ala-Arg-Glu-Arg-NH2 as substrate preincubated for 60 mins followed by substrate addition by fluorescence assay.
Stromelysin-1, sequence (P08254 whole entry, the tested form may be a part): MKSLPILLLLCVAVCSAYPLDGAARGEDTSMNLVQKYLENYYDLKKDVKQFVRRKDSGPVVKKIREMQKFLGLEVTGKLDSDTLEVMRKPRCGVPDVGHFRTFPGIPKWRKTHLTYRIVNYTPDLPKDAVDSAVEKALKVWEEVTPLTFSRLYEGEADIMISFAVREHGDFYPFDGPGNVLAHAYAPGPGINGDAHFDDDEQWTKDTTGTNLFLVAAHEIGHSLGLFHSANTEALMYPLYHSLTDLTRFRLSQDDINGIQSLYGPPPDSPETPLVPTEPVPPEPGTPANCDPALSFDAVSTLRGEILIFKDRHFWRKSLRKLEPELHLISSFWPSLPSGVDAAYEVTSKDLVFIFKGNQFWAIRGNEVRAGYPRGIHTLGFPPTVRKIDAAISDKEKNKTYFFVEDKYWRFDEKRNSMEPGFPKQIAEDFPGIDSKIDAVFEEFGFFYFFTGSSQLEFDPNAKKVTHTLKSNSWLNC
Data set [27] deals with Cynomolgus monkey. Kind of data set: Nephrotoxicity in cynomolgus monkey at 50 to 1000 mg/kg/day, po administered for 14 days. Format: toxicity, organism-based, Macaca fascicularis. Particulars: in vivo, 336 h.
Data set [28] can be described thus: Intrinsic clearance in human liver microsomes measured over 40 mins by HPLC/MS analysis. Particulars: read-out: CLH. Format: ADME.
The nature of data set [29]: Drug metabolism in cynomolgus monkey hepatocytes assessed as methyl oxidation. Format: ADME, cell-based, Macaca fascicularis, Hepatocyte.
Data set [30] in a line: Clearance in Sprague-Dawley rat at 1 mg/kg, iv administered as bolus dose by LC-MS/MS analysis. Format: ADME, organism-based. Particulars: in vivo.

Cytochrome P450 2C9, sequence (P11712 whole entry): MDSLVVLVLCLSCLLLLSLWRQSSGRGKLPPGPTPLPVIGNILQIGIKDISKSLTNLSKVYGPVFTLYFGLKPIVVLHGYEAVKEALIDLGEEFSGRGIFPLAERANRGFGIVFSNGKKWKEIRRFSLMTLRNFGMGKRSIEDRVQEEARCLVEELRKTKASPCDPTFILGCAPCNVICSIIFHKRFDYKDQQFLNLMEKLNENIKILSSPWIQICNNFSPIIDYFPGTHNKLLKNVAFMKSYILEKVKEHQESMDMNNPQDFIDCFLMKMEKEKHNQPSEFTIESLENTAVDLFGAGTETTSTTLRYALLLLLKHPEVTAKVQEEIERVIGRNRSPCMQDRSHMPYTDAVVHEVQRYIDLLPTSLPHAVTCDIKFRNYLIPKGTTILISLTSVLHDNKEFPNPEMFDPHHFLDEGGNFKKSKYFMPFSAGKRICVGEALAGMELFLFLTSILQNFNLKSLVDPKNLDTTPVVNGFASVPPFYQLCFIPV

Take `COc1cc(CNC(=O)c2cc(-c3nnn(C[C@H]4CO[C@H](C(=O)O)CO4)n3)nc(C)n2)ccc1F`: the Drug metabolism entry (in the data set on Cynomolgus monkey [1]; in the data set on Rattus norvegicus [2]; in the data set with Hepatocyte [3]; in [4]; in data set [5]) was “metabolite_detected” throughout. On Collagenase 3, the Ki worked out at 0.0002 µM.
Regarding `COc1cc(CNC(=O)c2cc(-c3nnn(C[C@H]4CO[C@H](CO)CO4)n3)nc(C)n2)ccc1F`, the Drug metabolism result (in the data set with Cynomolgus monkey [6]; in [7]; with Hepatocyte [10]; in data set [12]; in the data set with Hepatocyte [14]; in the data set with Hepatocyte [15]) was “metabolite_detected” throughout. Also, the Drug metabolism result (in data set [16]; in the data set with Rattus norvegicus [17]; in data set [18]; in data set [19]; in data set [20]; in data set [22]) was “metabolite_detected” each time. For the same compound, the Drug metabolism result (in [23]; in the data set with Hepatocyte [24]; in [25]; in the data set on Hepatocyte [26]; in [29]) was “metabolite_detected” each time. The figures for the clearance in data set [8], in data set [9] and in [30] were 8.2 mL/min/kg, 2.1 mL/min/kg and 18.2 mL/min/kg, respectively. In addition, the bioavailability in data set [11] was determined as 88%; in data set [13] it was 95%; in data set [21], 64%. Moreover, the half-maximal inhibitory concentration (IC50) at Cytochrome P450 2D6, on Cytochrome P450 1A2, against Cytochrome P450 3A4 and at Cytochrome P450 2C9 was above 30 µM in each case. In addition, the Ki on Collagenase 3 is 0.0015 µM; at Stromelysin-1, above 10 µM. In addition, the Activity result with Cynomolgus monkey [27] is reported as “Non-toxic”. In addition, the microsomal CLint in data set [28] is below 8 µL/min/mg.

The term Ki denotes a dissociation constant, usually derived from enzyme kinetics or from competition with a known ligand. One may read the bioavailability as the share of a dose that reaches the circulation, judged against a reference dose that is usually intravenous. One may read the IC50 as the midpoint of a concentration-inhibition curve.
